“Also recorded” adds a separate entry of the source. Where two headings read alike, the source gives them in different places.
Assays:
[1] = molecular target: apoenzyme of methylmalonyl-CoA mutase (Propionibacterium freudenreichii subsp. shermanii, UniProt P11653); details: cited from earlier work
methionine synthase [2] = format: cell-based, baby hamster
D. melanogaster [3] = details: in vivo
D. melanogaster [4] = details: in vivo; remark: listed apart in the source
[5] = human, in vivo, iv; cited from earlier work
methylmalonyl-CoA mutase [6] = format: cell-based, baby hamster
[7] = tested on: Malpighian tubules of D. melanogaster; format: cell-based
[8] = tested on: VASP phosphorylation in rat C6 glioma cells; format: cell-based
[9] = tested on: Malpighian tubules of D. melanogaster; format: cell-based; remark: listed apart in the source
D. melanogaster [10] = details: in vivo; remark: listed apart in the source
[11] = tested on: Chinese hamster cells (cytochrome c oxidase); format: cell-based
[12] = tested on: VASP phosphorylation in CS-54 vascular smooth muscle cells; format: cell-based, rat
[13] = pig, in vivo; cited from earlier work
transcobalamin II = details: cited from earlier work
baby chicks = details: in vivo, cited from earlier work
methylmalonyl-CoA mutase [14] = format: biochemical, baby hamster
[15] = tested on: NO (nitrite and nitrate) in Malpighian tubule medium; format: cell-based, D. melanogaster
[16] = tested on: human monocytes and lymphocytes; details: cited from earlier work
[17] = tested on: NO (nitrite plus nitrate), CS-54 cells; format: cell-based, rat
mouse leukemic cells = details: cited from earlier work
rats = details: rat, in vivo, sc; cited from earlier work
[18] = tested on: BHK, CS-54, and C6 cells, human foreskin fibroblasts and HUVECs
[19] = tested on: BHK, CS-54, and C6 cells, human foreskin fibroblasts and HUVECs; details: cited from earlier work
Chinese hamster cells = format: cell-based
[20] = rabbit, in vivo, cited from earlier work
methionine synthase [21] = format: biochemical, baby hamster
haptocorrin = haptocorrin (Homo sapiens, UniProt P20061); details: cited from earlier work
[22] = molecular target: methionine synthase apoenzyme (Homo sapiens, UniProt Q99707); details: cited from earlier work
[23] = tested on: NO (nitrite plus nitrate), C6 cells; format: cell-based, rat
[24] = tested on: Malpighian tubules of D. melanogaster; details: in vivo

haptocorrin, sequence (P20061 24-433): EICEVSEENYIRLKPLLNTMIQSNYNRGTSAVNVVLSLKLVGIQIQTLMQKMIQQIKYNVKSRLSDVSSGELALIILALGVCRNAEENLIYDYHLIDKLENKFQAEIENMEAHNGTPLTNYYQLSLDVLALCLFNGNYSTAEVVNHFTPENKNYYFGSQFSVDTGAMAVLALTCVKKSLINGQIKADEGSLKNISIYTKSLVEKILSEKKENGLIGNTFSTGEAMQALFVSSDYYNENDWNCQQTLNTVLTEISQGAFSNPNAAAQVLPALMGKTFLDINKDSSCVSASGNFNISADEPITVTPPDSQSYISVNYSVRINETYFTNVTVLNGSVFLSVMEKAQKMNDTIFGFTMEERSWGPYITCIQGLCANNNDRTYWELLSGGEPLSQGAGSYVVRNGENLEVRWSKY
apoenzyme of methylmalonyl-CoA mutase, sequence (P11652 2-638): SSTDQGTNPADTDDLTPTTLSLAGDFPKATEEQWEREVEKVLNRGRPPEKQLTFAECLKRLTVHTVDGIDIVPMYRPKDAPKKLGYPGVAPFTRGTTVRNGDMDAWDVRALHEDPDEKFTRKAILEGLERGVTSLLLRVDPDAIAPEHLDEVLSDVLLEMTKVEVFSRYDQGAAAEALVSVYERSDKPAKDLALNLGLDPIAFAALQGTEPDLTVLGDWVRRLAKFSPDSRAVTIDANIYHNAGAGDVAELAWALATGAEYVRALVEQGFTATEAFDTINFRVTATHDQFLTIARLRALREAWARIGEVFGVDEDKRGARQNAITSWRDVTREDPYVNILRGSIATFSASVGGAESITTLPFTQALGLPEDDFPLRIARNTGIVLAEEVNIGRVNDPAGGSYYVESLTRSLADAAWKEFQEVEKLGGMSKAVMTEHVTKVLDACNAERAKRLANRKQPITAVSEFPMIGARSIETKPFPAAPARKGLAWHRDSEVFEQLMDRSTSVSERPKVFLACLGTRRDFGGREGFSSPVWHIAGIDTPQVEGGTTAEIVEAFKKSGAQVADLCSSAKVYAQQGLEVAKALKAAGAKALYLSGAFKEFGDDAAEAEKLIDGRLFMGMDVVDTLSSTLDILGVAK
apoenzyme of methylmalonyl-CoA mutase, sequence (P11653 2-728): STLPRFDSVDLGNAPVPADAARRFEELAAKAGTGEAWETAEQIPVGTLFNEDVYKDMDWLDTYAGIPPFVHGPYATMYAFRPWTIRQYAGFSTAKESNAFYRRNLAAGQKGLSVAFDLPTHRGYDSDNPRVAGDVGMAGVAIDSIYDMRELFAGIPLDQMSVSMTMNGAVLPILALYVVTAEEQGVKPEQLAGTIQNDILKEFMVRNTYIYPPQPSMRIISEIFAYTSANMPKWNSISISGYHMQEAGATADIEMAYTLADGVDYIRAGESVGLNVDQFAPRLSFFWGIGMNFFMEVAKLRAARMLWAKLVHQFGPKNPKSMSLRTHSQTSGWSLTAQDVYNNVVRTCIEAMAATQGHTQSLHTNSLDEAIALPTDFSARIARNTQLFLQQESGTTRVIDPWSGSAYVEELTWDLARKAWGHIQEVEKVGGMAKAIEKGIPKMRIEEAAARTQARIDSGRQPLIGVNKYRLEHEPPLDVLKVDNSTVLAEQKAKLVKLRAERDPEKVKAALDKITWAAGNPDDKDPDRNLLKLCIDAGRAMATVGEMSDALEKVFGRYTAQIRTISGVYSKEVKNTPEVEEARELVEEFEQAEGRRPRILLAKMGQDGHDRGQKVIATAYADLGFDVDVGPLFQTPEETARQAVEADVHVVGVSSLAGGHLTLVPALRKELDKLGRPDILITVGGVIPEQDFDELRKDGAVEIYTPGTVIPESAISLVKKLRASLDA
methionine synthase apoenzyme, sequence (Q99707 whole entry): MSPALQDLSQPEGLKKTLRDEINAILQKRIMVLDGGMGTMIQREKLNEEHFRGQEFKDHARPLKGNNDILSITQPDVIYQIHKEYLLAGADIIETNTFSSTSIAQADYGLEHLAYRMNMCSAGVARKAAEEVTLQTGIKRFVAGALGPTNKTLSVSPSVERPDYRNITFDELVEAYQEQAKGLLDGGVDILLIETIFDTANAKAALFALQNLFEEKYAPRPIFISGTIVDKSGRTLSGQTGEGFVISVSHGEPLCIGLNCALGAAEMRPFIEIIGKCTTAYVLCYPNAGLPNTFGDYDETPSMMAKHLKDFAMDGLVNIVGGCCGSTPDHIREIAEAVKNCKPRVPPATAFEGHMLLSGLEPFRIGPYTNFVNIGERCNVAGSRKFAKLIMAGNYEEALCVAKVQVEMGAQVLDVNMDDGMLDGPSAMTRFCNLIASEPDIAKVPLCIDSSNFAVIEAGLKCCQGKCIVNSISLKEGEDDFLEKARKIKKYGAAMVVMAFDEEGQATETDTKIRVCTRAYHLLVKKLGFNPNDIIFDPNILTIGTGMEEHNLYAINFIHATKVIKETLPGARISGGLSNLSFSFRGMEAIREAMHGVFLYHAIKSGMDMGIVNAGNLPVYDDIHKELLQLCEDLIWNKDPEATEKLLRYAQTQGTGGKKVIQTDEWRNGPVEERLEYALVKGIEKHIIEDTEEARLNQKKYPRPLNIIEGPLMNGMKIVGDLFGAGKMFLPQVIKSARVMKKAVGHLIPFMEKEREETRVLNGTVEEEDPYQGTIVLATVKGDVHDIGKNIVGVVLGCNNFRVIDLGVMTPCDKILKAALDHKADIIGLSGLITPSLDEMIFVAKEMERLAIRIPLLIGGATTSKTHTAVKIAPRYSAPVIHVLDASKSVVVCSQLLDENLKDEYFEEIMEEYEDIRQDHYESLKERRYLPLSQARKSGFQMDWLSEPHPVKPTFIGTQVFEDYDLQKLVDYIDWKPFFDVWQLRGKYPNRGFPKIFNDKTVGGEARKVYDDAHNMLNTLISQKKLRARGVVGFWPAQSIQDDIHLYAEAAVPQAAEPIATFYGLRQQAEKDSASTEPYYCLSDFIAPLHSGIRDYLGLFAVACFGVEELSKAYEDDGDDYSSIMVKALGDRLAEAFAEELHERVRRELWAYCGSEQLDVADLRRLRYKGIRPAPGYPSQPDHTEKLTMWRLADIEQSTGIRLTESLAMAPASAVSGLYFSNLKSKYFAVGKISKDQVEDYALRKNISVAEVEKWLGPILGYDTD

In the case of 5′-deoxyadenosyl-cobinamide, the “restoring function to the apoenzyme of methylmalonyl-CoA mutase” value [1] is given as “inactive”.
With `C/C1=C2/[N-][C@H]([C@H](CC(N)=O)[C@@]2(C)CCC(=O)NC[C@H](C)OP(=O)([O-])O[C@H]2[C@@H](O)[C@@H](n3cnc4cc(C)c(C)cc43)O[C@@H]2CO)[C@]2(C)N=C(/C(C)=C3N=C(/C=C4N=C1[C@@H](CCC(N)=O)C\4(C)C)[C@@H](CCC(N)=O)[C@]\3(C)CC(N)=O)[C@@H](CCC(N)=O)[C@]2(C)CC(N)=O.[Co+2]` (stereo in doubt) [cobalamin, reference compound] the “prevention of cobinamide effect on [14C]-formate incorporation” value (methionine synthase [2]) was “completely prevented”, the toxicity to flies (D. melanogaster [3]) was “No toxicity” and the flies salvaged (D. melanogaster [4]) was 62%. For the same compound, the flies survived (D. melanogaster [4]) was 44%, the mortality rate (D. melanogaster [4]) was 55% and the “mean peak serum concentration” value [5] was “about 650 μM”. The “prevention of cobinamide effect on [14C]-propionic acid incorporation” value (methylmalonyl-CoA mutase [6]) was “completely prevented”, the “effect on NO scavenging by cobinamide, tubular fluid secretion” value [7] was “no effect on NO scavenging by cobinamide” and the “effect on NO scavenging by cobinamide, VASP phosphorylation” value [8] was “no effect on NO scavenging by cobinamide”. For the same compound, the basal secretion rates [9] was “no effect on basal secretion rates”, the “resistance to KCN inhibition of tubular secretion” value [9] was “significant resistance to the inhibitory effect of KCN; also recorded: intermediate degree of resistance to KCN” and the survival rate (D. melanogaster [10]) was 38%. For the same compound, the “effect on oxygen consumption” value [11] was “Neither cobinamide nor cobalamin alone had any effect on oxygen consumption” and the “recovery of respiration, of control non-KCN-treated cells” value [11] was 42%.
In the case of `C/C1=C2/[N-][C@H]([C@H](CC(N)=O)[C@@]2(C)CCC(=O)NC[C@@H](C)O)[C@]2(C)N=C(/C(C)=C3N=C(/C=C4N=C1[C@@H](CCC(N)=O)C\4(C)C)[C@@H](CCC(N)=O)[C@]\3(C)CC(N)=O)[C@@H](CCC(N)=O)[C@]2(C)CC(N)=O.[Co+3]` [cobinamide], the “A23187-induced VASP phosphorylation” value [12] is listed as “significantly attenuated this effect”, the “absorption across the ileum” value [13] is listed as “can be absorbed across the ileum independently of intrinsic factor” and the “binding to transcobalamin II” value (transcobalamin II) is listed as “binds poorly”. The “decrease of [14C]-formate incorporation into purine nucleotides” value (methionine synthase [2]) was “about 50%”, the “inhibition of in vivo methionine synthase activity” value (methionine synthase [2]) was “minimal inhibition” and the “detrimental effect on the flies” value (D. melanogaster [3]) was “no apparent detrimental effect”. The toxicity to flies (D. melanogaster [3]) was “No toxicity”, the “growth of baby chicks” value (baby chicks; po) was “did inhibit chick growth” and the “growth of baby chicks” value (baby chicks) was “no effect on the growth of baby chicks”. For the same compound, the “HCN exposure time without any significant increase in mortality” value (D. melanogaster [4]) was “up to 15 min”, the flies salvaged (D. melanogaster [4]) was 94% and the flies survived (D. melanogaster [4]) was 65%. For the same compound, the “flies surviving / recovered by 1 h” value (D. melanogaster [4]) was “approximately 90%”, the mortality rate (D. melanogaster [4]) was 18% and the “outcome of prolonged HCN exposure” value (D. melanogaster [4]) was “death of all flies”. The prevention of death (D. melanogaster [4]) was “as effective in preventing death under these conditions as it was when administered prior to cyanide exposure”, the “binding to serum albumin” value (serum albumin) was “binds tightly to serum albumin” and the “methylmalonyl-CoA mutase activity in BHK cell extracts” value (methylmalonyl-CoA mutase [14]) was “no effect”. For the same compound, the “reduction of combined nitrite and nitrate” value [15] was “about 50%”, the growth inhibitory effects [16] was “no growth inhibitory effects” and the “nitrite plus nitrate concentrations in medium” value [17] was “significant decrease in the nitrite plus nitrate concentrations”. For the same compound, the “decrease of [14C]-propionic acid incorporation into protein” value (methylmalonyl-CoA mutase [6]) was “about 50%”, the growth inhibitory effects (mouse leukemic cells) was “no growth inhibitory effects” and the “inhibition of methionine synthase or methylmalonyl-CoA mutase” value (rats) was “nor did cobinamide inhibit the two mammalian cobalamin-dependent enzymes”. The toxic effects (rats) was “no apparent toxic effects”, the “concentration at which toxicity began to be observed” value [18] was “about 50 μM” and the “not toxic to cultured mammalian cells up to” value [19] was “at least 50 μM”. For the same compound, the “growth rate of KCN-treated cells” value (Chinese hamster cells) was “restored their growth rate to normal”, the “release from the liver, t?” value ([20]; iv) was roughly 150 h and the liver retention [20] was “retained more by the liver than cobalamin”. The “rate of tubular secretion” value [7] was “rapidly reduced tubular secretion, returning rates near to the basal state”, the “methionine synthase activity in BHK cell extracts” value (methionine synthase [21]) was “no effect” and the binding to haptocorrin (haptocorrin) was “binds tightly”. The “restoration of methionine synthase apoenzyme activity” value [22] was “can restore the methionine synthase apoenzyme to full activity”, the “nitrite plus nitrate concentrations in medium” value [23] was “significant decrease in the nitrite plus nitrate concentrations” and the “reduction of LPS-stimulated tubular secretion rates compared to control flies” value [24] was “about 50%”. The “8-pCPT-cGMP-induced VASP phosphorylation” value [8] was “no effect”, the “PAPA-NONOate-induced VASP phosphorylation” value [8] was “prevented the increase in VASP phosphorylation; also recorded: prevented increases in VASP phosphorylation” and the basal secretion rates [9] was “no effect on basal secretion rates”. The “resistance to KCN inhibition of tubular secretion” value [9] was “significant resistance to the inhibitory effect of KCN; also recorded: almost complete reversal of the toxic effects of KCN”, the tubular secretion rates [9] was “tubular secretion rates increased significantly” and the survival rate (D. melanogaster [10]) was 65%. For the same compound, the “effect on oxygen consumption” value [11] was “Neither cobinamide nor cobalamin alone had any effect on oxygen consumption” and the “recovery of respiration, of control non-KCN-treated cells” value [11] was “about 75%”.

From patent US8431561B2 (priority 2004, dated 2013)
